From patent US20250325552A1, “SUBSTITUTED THIADIAZOLYL DERIVATIVES AS DNA POLYMERASE THETA INHIBITORS” (IDEAYA Biosciences, Inc., priority 2020, published 2025)

What follows are molecules tested against Polθ theta (1-899) (hPolQ) (Homo sapiens (Human), UniProt O75417) (assay: Biological Assay 1: Polθ ATPase activity, NADH oxidation-coupled enzymatic assay (10 nM enzyme, 30 min)). Conditions: Polθ (1-899) 10 nM, 100 μM ATP, 300 nM dT50 ssDNA; Examples 1 to 268; read-out: ATPase NADH coupling:Standard Screening:hPolQ IC50.
Format: biochemical
In short: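 ATP turnover was coupled to NADH oxidation and followed at 340 nm every minute for 30 min. Enzyme (residues 1-899, 10 nM) sat with compound for 15 min at room temperature before an equal-volume addition of 100 μM ATP plus 300 nM dT50 ssDNA. Progress-curve slopes from 10-point dilutions were fitted by a four-parameter model.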

Polθ theta (1-899) (hPolQ), sequence (O75417 1-899): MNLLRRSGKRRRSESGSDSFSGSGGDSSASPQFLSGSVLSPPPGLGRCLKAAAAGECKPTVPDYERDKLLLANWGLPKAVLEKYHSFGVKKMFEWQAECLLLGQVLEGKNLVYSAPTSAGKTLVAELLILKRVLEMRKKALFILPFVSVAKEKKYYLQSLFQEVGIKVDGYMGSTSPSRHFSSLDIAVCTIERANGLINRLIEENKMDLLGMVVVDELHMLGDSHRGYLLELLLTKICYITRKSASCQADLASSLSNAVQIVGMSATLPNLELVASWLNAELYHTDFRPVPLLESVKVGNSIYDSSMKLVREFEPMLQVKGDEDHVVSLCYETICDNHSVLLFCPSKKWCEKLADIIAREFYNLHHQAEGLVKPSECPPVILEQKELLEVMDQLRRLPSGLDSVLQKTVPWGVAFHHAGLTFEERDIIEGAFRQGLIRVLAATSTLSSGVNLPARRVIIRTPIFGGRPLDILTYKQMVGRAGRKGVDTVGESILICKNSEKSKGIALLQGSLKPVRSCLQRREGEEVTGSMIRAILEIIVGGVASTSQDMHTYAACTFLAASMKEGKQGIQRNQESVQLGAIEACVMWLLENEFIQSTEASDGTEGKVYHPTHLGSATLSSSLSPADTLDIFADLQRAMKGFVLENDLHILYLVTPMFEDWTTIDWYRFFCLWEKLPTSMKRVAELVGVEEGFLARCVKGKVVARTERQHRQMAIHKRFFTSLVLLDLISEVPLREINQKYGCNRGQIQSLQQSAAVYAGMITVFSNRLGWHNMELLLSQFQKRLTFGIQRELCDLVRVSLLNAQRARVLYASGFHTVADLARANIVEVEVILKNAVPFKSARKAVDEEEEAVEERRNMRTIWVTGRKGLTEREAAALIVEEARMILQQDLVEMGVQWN

| Molecule | IC50 [nM] |
| --- | --- |
| COc1cccc(F)c1-c1cc(C)ncc1C(=O)Nc1nnc(OCc2ccc3c(n2)CCC[C@@H]3O)s1 [Example 116, 4-(2-fluoro-6-methoxyphenyl)-N-(5-(((S)-5-hydroxy-5,6,7,8-tetrahydroquinolin-2-yl)methoxy)-1,3,4-thiadiazol-2-yl)-6-methylnicotinamide] | ≤ 200 |
| COc1cnc(Cl)cc1-c1cc(C)ncc1C(=O)Nc1nnc(OCc2ccc(C(C)(C)OC)cn2)s1 [Example 125, 2′-chloro-5′-methoxy-N-(5-((5-(2-methoxypropan-2-yl)pyridin-2-yl)methoxy)-1,3,4-thiadiazol-2-yl)-6-methyl-(4,4′-bipyridine)-3-carboxamide] | ≤ 200 |
| COc1ccnc(COc2nnc(NC(=O)c3cnc(C)cc3-c3c(F)cccc3OC)s2)c1 [Example 67, 4-(2-fluoro-6-methoxyphenyl)-N-(5-((4-methoxypyridin-2-yl)methoxy)-1,3,4-thiadiazol-2-yl)-6-methylnicotinamide] | ≤ 200 |
| COc1cccc(F)c1-c1cc(C)ncc1C(=O)Nc1nnc(OCc2ccc(S(C)(=N)=O)cc2)s1 (racemic) [Example 79, 4-(2-fluoro-6-methoxyphenyl)-6-methyl-N-(5-((4-(S-methylsulfonimidoyl)benzyl)oxy)-1,3,4-thiadiazol-2-yl)nicotinamide] | ≤ 200 |
| COc1cccc(F)c1-c1cc(C)ncc1C(=O)Nc1nnc(OCc2ccc3c(n2)CCOC3)s1 [Example 102, 4-(2-fluoro-6-methoxyphenyl)-6-methyl-N-(5-(5H,7H,8H-pyrano(4,3-b)pyridin-2-ylmethoxy)-1,3,4-thiadiazol-2-yl)pyridine-3-carboxamide] | ≤ 200 |
| COc1cccc(F)c1-c1cc(C)ncc1C(=O)Nc1nnc(OCC23CC(C(C)(C)O)(C2)C3)s1 [Example 103, 4-(2-fluoro-6-methoxyphenyl)-N-(5-((3-(2-hydroxypropan-2-yl)bicyclo(1.1.1)pentan-1-yl)methoxy)-1,3,4-thiadiazol-2-yl)-6-methylpyridine-3-carboxamide] | ≤ 200 |
| COc1c(C#N)cccc1-c1cc(C)ncc1C(=O)Nc1nnc(OCc2ccc(Cl)cn2)s1 [Example 21, N-(5-((5-chloropyridin-2-yl)methoxy)-1,3,4-thiadiazol-2-yl)-4-(3-cyano-2-methoxyphenyl)-6-methylnicotinamide] | ≤ 200 |
| COc1cnc(C)cc1-c1cc(C)ncc1C(=O)Nc1nnc(OCc2ccc(OC(F)F)cn2)s1 [Example 82, N-(5-((5-(difluoromethoxy)pyridin-2-yl)methoxy)-1,3,4-thiadiazol-2-yl)-5′-methoxy-2′,6-dimethyl-(4,4′-bipyridine)-3-carboxamide] | ≤ 200 |
| COc1cccc(F)c1-c1cc(C)ncc1C(=O)Nc1nnc(OCc2ccc([S@](C)(=N)=O)cn2)s1 [Example 149, 4-(2-fluoro-6-methoxyphenyl)-6-methyl-N-(5-((5-((R)—S-methylsulfonimidoyl)pyridin-2-yl)methoxy)-1,3,4-thiadiazol-2-yl)nicotinamide] | ≤ 200 |
| COc1cccc(F)c1-c1cc(C)ncc1C(=O)Nc1nnc(OCc2ncc(C(C)(C)O)cc2F)s1 [Example 87, N-(5-((3-fluoro-5-(2-hydroxypropan-2-yl)pyridin-2-yl)methoxy)-1,3,4-thiadiazol-2-yl)-4-(2-fluoro-6-methoxyphenyl)-6-methylpyridine-3-carboxamide] | ≤ 200 |
| COc1ccccc1-c1cc(C)ncc1C(=O)Nc1nnc(O[C@H](C)c2ccc(Cl)cn2)s1 [Example 12, (R)—N-(5-(1-(5-chloropyridin-2-yl)ethoxy)-1,3,4-thiadiazol-2-yl)-4-(2-methoxyphenyl)-6-methylnicotinamide] | 1000 to 10000 |
| COc1cnc(Cl)cc1-c1cc(C)ncc1C(=O)Nc1nnc(OCC2CC3(CC(O)C3)C2)s1 (stereo not drawn) [Example 138, 2′-chloro-N-(5-((6-hydroxyspiro[3.3]heptan-2-yl)methoxy)-1,3,4-thiadiazol-2-yl)-5′-methoxy-6-methyl-[4,4′-bipyridine]-3-carboxamide] | ≤ 200 |
| COc1ccc(COc2nnc(NC(=O)c3cnc(C)cc3-c3cc(Cl)ccc3OC)s2)nc1 [Example 52, 4-(5-chloro-2-methoxyphenyl)-N-(5-((5-methoxypyridin-2-yl)methoxy)-1,3,4-thiadiazol-2-yl)-6-methylpyridine-3-carboxamide] | ≤ 200 |
| COc1cccc(F)c1-c1cccnc1C(=O)Nc1nnc(OCc2ccc(Cl)cn2)s1 [Example 19, N-(5-((5-chloropyridin-2-yl)methoxy)-1,3,4-thiadiazol-2-yl)-3-(2-fluoro-6-methoxyphenyl)picolinamide] | 1000 to 10000 |
| COc1cnc(Cl)cc1-c1cc(C)ncc1C(=O)Nc1nnc(OCC23CCC(O)(CC2)CC3)s1 [Example 136, 2′-chloro-N-(5-((4-hydroxybicyclo(2.2.2)octan-1-yl)methoxy)-1,3,4-thiadiazol-2-yl)-5′-methoxy-6-methyl-(4,4′-bipyridine)-3-carboxamide] | ≤ 200 |
| COc1cnc(Cl)cc1-c1cc(C)ncc1C(=O)Nc1nnc(OCC2CC3CC2CN3C(=O)C(C)C)s1 (stereo not drawn) [Example 156, 2′-chloro-N-(5-((2-isobutyryl-2-azabicyclo[2.2.1]heptan-5-yl)methoxy)-1,3,4-thiadiazol-2-yl)-5′-methoxy-6-methyl-[4,4′-bipyridine]-3-carboxamide] | ≤ 200 |
| COc1cccc(F)c1-c1cc(C)ncc1C(=O)Nc1nnc(OCc2ccc3c(n2)OCCO3)s1 [Example 35, N-(5-(2H,3H-(1,4)dioxino(2,3-b)pyridin-6-ylmethoxy)-1,3,4-thiadiazol-2-yl)-4-(2-fluoro-6-methoxyphenyl)-6-methylpyridine-3-carboxamide] | ≤ 200 |
| CN=[S@](C)(=O)c1ccc(COc2nnc(NC(=O)c3cnc(C)cc3-c3cc(Cl)ccc3OC)s2)nc1 [Example 144, (R)-4-(5-chloro-2-methoxyphenyl)-N-(5-((5-(N,S-dimethylsulfonimidoyl)pyridin-2-yl)methoxy)-1,3,4-thiadiazol-2-yl)-6-methylnicotinamide] | ≤ 200 |
| COc1cccc(F)c1-c1cc(C)ncc1C(=O)Nc1nnc(OCC23CCC(O)(CC2)C3)s1 [Example 112, 4-(2-fluoro-6-methoxyphenyl)-N-(5-((4-hydroxybicyclo(2.2.1)heptan-1-yl)methoxy)-1,3,4-thiadiazol-2-yl)-6-methylpyridine-3-carboxamide] | ≤ 200 |
| COc1ccccc1-c1cc(C)ncc1C(=O)Nc1nnc(OCc2cccc(CO)n2)s1 [Example 6, N-(5-((6-(hydroxymethyl)pyridin-2-yl)methoxy)-1,3,4-thiadiazol-2-yl)-4-(2-methoxyphenyl)-6-methylpyridine-3-carboxamide] | ≤ 200 |
| COc1cccc(F)c1-c1cncnc1C(=O)Nc1nnc(OCc2ccc(CO)cn2)s1 [Example 37, 5-(2-fluoro-6-methoxyphenyl)-N-(5-((5-(hydroxymethyl)pyridin-2-yl)methoxy)-1,3,4-thiadiazol-2-yl)pyrimidine-4-carboxamide] | ≤ 200 |
| N-(5-(((S)-1,4-dioxan-2-yl)methoxy)-1,3,4-thiadiazol-2-yl)-3′-fluoro-5′-methoxy-2′,6-dimethyl-(4,4′-bipyridine)-3-carboxamide [Example 241] | ≤ 200 |

Continued, values first:

| IC50 [nM] | Molecule |
| --- | --- |
| ≤ 200 | COc1cnc(Cl)cc1-c1cc(C)ncc1C(=O)Nc1nnc(OCC2(C)COC2)s1 [Example 162, 2′-chloro-5′-methoxy-6-methyl-N-(5-((3-methyloxetan-3-yl)methoxy)-1,3,4-thiadiazol-2-yl)-(4,4′-bipyridine)-3-carboxamide] |
| ≤ 200 | COc1cnc(Br)cc1-c1cc(C)ncc1C(=O)Nc1nnc(OC[C@@H]2CCOC2)s1 (single isomer, unassigned) [Example 245] |
| ≤ 200 | COc1cnc(Cl)cc1-c1cc(C)ncc1C(=O)Nc1nnc(OC[C@H]2COC3(CCC3)C2)s1 (single isomer, unassigned) [Example 227] |
| ≤ 200 | COc1cnc(Cl)cc1-c1cc(C)ncc1C(=O)Nc1nnc(OC[C@H]2CC[C@@H](O)C2)s1 (single isomer, unassigned) [Example 210] |
| ≤ 200 | COc1cnc(Cl)cc1-c1cc(C)ncc1C(=O)Nc1nnc(OC[C@H]2COC(C)(C)CO2)s1 (single isomer, unassigned) [Example 223] |
| ≤ 200 | COc1cnc(Cl)cc1-c1cc(C)ncc1C(=O)Nc1nnc(OCC2(F)CC2)s1 [Example 198, 2′-chloro-N-(5-((1-fluorocyclopropyl)methoxy)-1,3,4-thiadiazol-2-yl)-5′-methoxy-6-methyl-(4,4′-bipyridine)-3-carboxamide] |
| ≤ 200 | COc1cnc(Cl)cc1-c1cc(C)ncc1C(=O)Nc1nnc(OC[C@H]2CO[C@H](C)C2)s1 (single isomer, unassigned) [Example 252] |
| ≤ 200 | COc1cnc(Cl)cc1-c1cc(C)ncc1C(=O)Nc1nnc(OC[C@@H]2CC[C@@H](O)C2)s1 (single isomer, unassigned) [Example 209] |
| ≤ 200 | COc1cnc(Cl)cc1-c1cc(C)ncc1C(=O)Nc1nnc(OCC2CCOC2C)s1 (stereo not drawn) [Example 177, 2′-chloro-5′-methoxy-6-methyl-N-(5-((2-methyltetrahydrofuran-3-yl)methoxy)-1,3,4-thiadiazol-2-yl)-(4,4′-bipyridine)-3-carboxamide] |
| ≤ 200 | COc1cnc(Cl)c(F)c1-c1cc(C)ncc1C(=O)Nc1nnc(OC[C@H]2CC[C@H](O)CC2)s1 [Example 248, 2′-chloro-3′-fluoro-N-(5-(((1r,4r)-4-hydroxycyclohexyl)methoxy)-1,3,4-thiadiazol-2-yl)-5′-methoxy-6-methyl-(4,4′-bipyridine)-3-carboxamide] |
| ≤ 200 | COc1cnc(Cl)cc1-c1cc(C)ncc1C(=O)Nc1nnc(OCC2CCOC2)s1 (racemic) [Example 167, 2′-chloro-5′-methoxy-6-methyl-N-(5-((tetrahydrofuran-3-yl)methoxy)-1,3,4-thiadiazol-2-yl)-(4,4′-bipyridine)-3-carboxamide] |
